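Growth conditions: 96-well plates. Treatment: test compound, 48 hours, 5 concentrations. Analysis: linear interpolation between bracketing concentrations; unreached endpoints set to highest concentration. GI50 = concentration required for 50% inhibition of growth. TGI marks complete inhibition of growth.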

What all share (experiment): growth of human tumour cells (NCI), 48 h
The subject of assay [1] is UACC-257 melanoma.
Assay [2] concerns MDA-MB-231 breast.
Assay [3] has as its system MOLT-4 leukemia.
Assay [4] concerns HCC-2998 colon.
For assay [5], the system named is HS 578T breast.
The subject of assay [6] is K-562 leukemia.
Assay [7] deals with T-47D breast.
Assay [8] concerns OVCAR-4 ovarian.
In assay [9] the test system is A549 NSCLC.
Assay [10] relates to LOX IMVI melanoma.

Take `COC(=O)[C@H](Cc1ccc(O)cc1)NC(=O)[C@@H](OC)[C@@H]1Cc2cc3cc(OC4CC(OC5CC(O)C(O)C(C)O5)C(O)C(C)O4)c(C)c(O)c3c(O)c2C(=O)[C@H]1OC1CC(OC2CC(OC3CC(C)(O)C(O)C(C)O3)C(O)C(C)O2)C(O)C(C)O1` (stereo partly drawn): the GI50 is 0.124 µM in assay [1]; 0.196 µM in [2]; 0.126 µM in [3]; 0.172 µM in assay [4]; 0.0654 µM in [5]; 0.116 µM in assay [6]. The GI50 was 0.0873 µM in [7], 0.178 µM in [8], 0.15 µM in assay [9] and 0.0316 µM in [10]. The TGI is 4.39 µM in [1]; above 25 µM in assay [2]; above 25 µM in assay [3]; 0.758 µM in assay [4]; 5.36 µM in assay [5]; above 25 µM in assay [6]. For the same compound, the TGI in [7], in assay [8], in [9] and in assay [10] was above 25 µM in each case.

In the case of `O=c1c2ccccc2c2ccccc2c(=O)n1Cc1ccc2c(c1)OCO2`, the TGI in assay [1] was above 100 µM; in assay [2], above 100 µM; in assay [3], above 50.6 µM; in assay [4] it was above 100 µM; in [5], above 100 µM; in assay [6], above 28 µM. The TGI in [7], in [8], in assay [9] and in assay [10] was above 100 µM each time.

With `O=C(/C(=C/c1ccc([N+](=O)[O-])cc1)SCc1ccc(F)cc1)c1ccc(Cl)cc1`, the GI50 was 16 µM in assay [1]; 4.37 µM in assay [2]; 3.54 µM in assay [3]; 5.11 µM in [4]; 3 µM in assay [5]; 3.05 µM in assay [6]. Also, the GI50 in assay [7] is 7 µM; in assay [8] it was 3.12 µM; in assay [9], above 100 µM; in assay [10] it was 1.73 µM. Moreover, the TGI in assay [1] was 34.2 µM; in assay [2], 23 µM; in assay [3], above 100 µM; in [4], 19 µM; in [5], 9.32 µM; in assay [6], above 100 µM. Moreover, the TGI in assay [7] is 26.2 µM; in assay [8], 13 µM; in [9], above 100 µM; in assay [10] it was 3.27 µM.

As for `CCc1ccc2c(c1)N(CCO)C1=C(C(=O)OC1)C2c1cccc(Cl)c1` (stereo not drawn), the GI50 is 0.772 µM in [1]; 1.66 µM in assay [2]; 1.78 µM in [3]; 1.35 µM in [4]; 1.37 µM in assay [5]; 0.485 µM in [6]. Moreover, the GI50 was 0.583 µM in assay [7], 0.834 µM in assay [8], 0.784 µM in assay [9] and 0.684 µM in assay [10]. The TGI in assay [1] was found to be 23.6 µM; in assay [2] it was 15.3 µM; in assay [3], 48.5 µM; in assay [4] it was 9.25 µM; in assay [5] it was 32.2 µM; in assay [6] it was 23.9 µM. In addition, the TGI was found to be 26.4 µM in [7], 28.8 µM in assay [8], 18.6 µM in assay [9] and 17.7 µM in assay [10].

Consider `O=C1c2ccccc2-c2c1c1c(O)cccc1n2-c1ccccc1`, for which the GI50 in [1], in assay [2], in assay [3], in [4], in [5] and in assay [6] was above 100 µM in each case. Moreover, the GI50 in [7], in assay [9] and in assay [10] was above 100 µM in each case. Besides, the TGI in assay [1], in [2], in assay [3], in assay [4], in assay [5] and in assay [6] was above 100 µM throughout. Further, the TGI in [7], in assay [8], in assay [9] and in [10] was above 100 µM throughout.

For the compound `O=C(Nc1nc2ccc(F)cc2s1)c1cccnc1Nc1ccc(Cl)cc1`, the GI50 in assay [1] was 0.677 µM; in [2] it was 1.88 µM; in assay [3], 2.47 µM; in [4] it was 2.73 µM; in assay [5] it was 2.1 µM; in assay [6] it was 0.961 µM. In addition, the GI50 is 1.04 µM in assay [7], 2.99 µM in assay [8], 3.35 µM in assay [9] and 2.66 µM in [10]. Besides, the TGI in [2] was 5 µM; in assay [3], above 27 µM; in [4], above 100 µM; in assay [5], 7.54 µM; in assay [6], above 100 µM; in assay [7], above 29.2 µM. Further, the figures for the TGI in assay [8], in assay [9] and in assay [10] were above 100 µM, above 33.7 µM and above 28.8 µM, respectively.

Regarding `O=C(NCc1ccco1)c1ccc(NC2=C(Cl)C(=O)N(Cc3ccccc3)C2=O)cc1`, the GI50 in [1] was 28.9 µM; in assay [2], 24 µM; in assay [3], 14.7 µM; in assay [4], 22.9 µM; in assay [5], 43.3 µM; in assay [6] it was 21.2 µM. In addition, the GI50 in assay [7] was 41 µM; in assay [8], 51.3 µM; in assay [9], 37.2 µM; in assay [10] it was above 100 µM. Besides, the TGI is 80.8 µM in assay [1]; 62.1 µM in assay [2]; 38 µM in assay [3]; 37.4 µM in assay [4]; above 100 µM in [5]; 49.7 µM in [6]. Besides, the TGI in assay [7], in assay [8], in assay [9] and in [10] was above 100 µM each time.

`O=C(NN=C1CCCCC1)c1[nH]c2ccc(F)cc2c1-c1ccccc1`: the GI50 in [1] is 59.1 µM; in assay [2], 49 µM; in assay [3], 22.5 µM; in assay [4], 17.4 µM; in assay [5], 48.3 µM; in assay [6] it was 5.91 µM. The GI50 in assay [7] was 46.8 µM; in assay [8], 16.9 µM; in assay [9], 42.9 µM; in [10], 25.2 µM. Further, the TGI in [1] was above 100 µM; in assay [2] it was above 100 µM; in [3], 61.9 µM; in assay [4], 36.4 µM; in assay [5] it was above 100 µM; in assay [6], 26.6 µM. Also, the TGI in assay [7] is above 100 µM; in assay [8], 69.4 µM; in assay [9] it was above 100 µM; in assay [10], above 100 µM.

(Values after PubChem BioAssay (NCI).)
